Patent US20110009352A1, “RESTORATIVE AGENT FOR ANTIBACTERIAL PEPTIDE PRODUCTION ABILITY” (Minophagen Pharmaceutical Co., LTD., priority 2009, published 2011)

B1: IL-10: interleukin-10 produced by known recombinant DNA technology, 1 ng/ml (Reference Example 19) (protein, UniProt P18893 19-178, looked up)
Interleukin-10: SRGQYSREDNNCTHFPVGQSHMLLELRTAFSQVKTFFQTKDQLDNILLTDSLMQDFKGYLGCQALSEMIQFYLVEVMPQAEKHGPEIKEHLNSLGEKLKTLRMRLRRCHRFLPCENKSKAVEQVKSDFNKLQDQGVYKAMNEFDIFINCIEAYMMIKMKS

Columns and labels:
Pseudomonas aeruginosa [1] = assay: Survival rate of burn-injured, Pseudomonas aeruginosa-administered mice; assay type: in vivo, mouse
Procedure: A normal mouse was given a burn injury on the dorsal side, and Pseudomonas aeruginosa was applied to the burn site in an amount of 100 CFU (Colony-Forming Units). Subsequently, glycyrrhizin was intraperitoneally administered to the mouse at 2 hours, 24 hours and 72 hours after the occurrence of burn injury, each time in an amount of 10 mg per kilogram of body weight of the mouse (an amount of 10 mg/kg), and it was checked whether the mouse was alive or dead. The same operation was carried out on 10 mice, and the survival rate of the mice was checked. The horizontal axis of the graph of FIG. 1 represents the number of days (days) after the Pseudomonas aeruginosa infection.
The experiment was carried out in the same manner as in Example 1, except that physiological saline was intraperitoneally administered instead of glycyrrhizin, and the survival rate of the mice was checked.

Pseudomonas aeruginosa [2] = assay: Amount of Pseudomonas aeruginosa in blood and spleen homogenate specimens of infected burn mice (colony counting); assay type: in vivo; details: 100 CFU, 10 mg/kg i.p. at 2 and 12 hours after infection, 48 hours after infection
Procedure: A normal mouse was given a burn injury on its dorsal side, and was infected at the burn site with Pseudomonas aeruginosa in an amount of 100 CFU. Subsequently, glycyrrhizin was intraperitoneally administered to the mouse at 2 hours and 12 hours after the infection with Pseudomonas aeruginosa, each time in an amount of 10 mg per kilogram of body weight of the mouse (an amount of 10 mg/kg). Subsequently, after 48 hours from the infection with Pseudomonas aeruginosa, blood and spleen were collected from the mouse, and the amounts of Pseudomonas aeruginosa in the blood specimen and the spleen homogenate specimen were measured by a colony-counting method. The vertical axis of the graph of FIG. 4 represents the amount of Pseudomonas aeruginosa in 1 ml of the specimen (amount of CFU). The experiment was carried out in the same manner as in Example 2, except that physiological saline was intraperitoneally administered instead of glycyrrhizin, and the amounts of Pseudomonas aeruginosa in the blood specimen and the spleen homogenate specimen were measured.

MBD-1 [3] = assay: Amount of MBD-1 in skin tissue homogenate around the burn site (ELISA); assay type: in vivo; details: 10 mg/kg i.p. 2 hours after burn, skin collected 0.5-24 hours after burn
Procedure: A normal mouse was given a burn injury on its dorsal side, and was intraperitoneally administered with glycyrrhizin in an amount of 10 mg per kg of body weight of the mouse (an amount of 10 mg/kg), 2 hours after the occurrence of burn injury. The skin tissue was collected from the surroundings of the burn site after 0.5 hours, 6 hours, 12 hours, 18 hours and 24 hours from the occurrence of burn injury, and the collected skin tissues were homogenized. The amount of MBD-1 in the homogenate liquid was measured by ELISA. The horizontal axis of the graph of FIG. 5 represents the time (hours) after the occurrence of burn injury. The experiment was carried out in the same manner as in Example 3, except that physiological saline was intraperitoneally administered instead of glycyrrhizin, and the amount of MBD-1 in the homogenate liquid was measured.

MBD-1 [4] = assay: Amount of MBD-1 in culture supernatant of epidermal keratinocytes and/or Gr-1+CD11b+ cells (Transwell, ELISA); assay type: cell-based, mouse; details: 10 μg/ml, 48 hours
Procedure: Epidermal keratinocytes (EK) were collected from the skin of a normal mouse, and a cell solution was prepared to a concentration of 2×10^6 cells/ml using RPMI1640 medium supplemented with 10% inactivated fetal bovine serum. Furthermore, a normal mouse was given a burn injury on its dorsal side, and after 12 hours, Gr-1^+CD11b^+ cells were collected from the skin tissues around the burn site. A cell solution of the collected cells was prepared to a concentration of 5×10^5 cells/ml using RPMI1640 medium supplemented with 10% inactivated fetal bovine serum. In the co-presence of glycyrrhizin in an amount of 10 μg/ml, the epidermal keratinocytes and the Gr-1^+CD11b^+ cells were cultured in a same Transwell at 37° C. After 48 hours from the initiation of culture, the amount of MBD-1 in the supernatant of the culture fluid was measured by ELISA. The experiment was carried out in the same manner as in Example 4, except that glycyrrhizin was not allowed to be co-present, and the amount of MBD-1 in the supernatant of the culture fluid was measured. The experiment was carried out in the same manner as in Example 4, except that only epidermal keratinocytes (2×10^6 cells/ml) were cultured without allowing glycyrrhizin to be co-present, and the amount of MBD-1 in the supernatant of the culture fluid was measured. The experiment was carried out in the same manner as in Example 4, except that only epidermal keratinocytes (2×10^6 cells/ml) were cultured in the co-presence of glycyrrhizin in an amount of 10 μg/ml, and the amount of MBD-1 in the supernatant of the culture fluid was measured. The experiment was carried out in the same manner as in Example 4, except that only Gr-1^+CD11b^+ cells (5×10^5 cells/ml) were cultured without allowing glycyrrhizin to be co-present, and the amount of MBD-1 in the supernatant of the culture fluid was measured.

MBD-3 = assay: Amount of MBD-3 in culture supernatant of LPS-treated epidermal keratinocytes and/or Gr-1+CD11b+ cells (Transwell, ELISA); assay type: cell-based, mouse; details: 10 μg/ml, 48 hours
Procedure: Epidermal keratinocytes (EK) were collected from the skin of a normal mouse, and a cell solution was prepared to a concentration of 2×10^6 cells/ml using RPMI1640 medium supplemented with 10% inactivated fetal bovine serum. In order to induce MBD-3, the cells were treated with lipopolysaccharides (LPS) in an amount of 1 μg/ml for 6 hours. Furthermore, a normal mouse was given a burn injury on its dorsal side, and after 12 hours, Gr-1^+CD11b^+ cells were collected from the skin tissues around the burn site. A cell solution of the collected cells was prepared to a concentration of 5×10^5 cells/ml using RPMI1640 medium supplemented with 10% inactivated fetal bovine serum. In the co-presence of glycyrrhizin in an amount of 10 μg/ml, the LPS-treated epidermal keratinocytes and the Gr-1^+CD11b^+ cells were cultured in a same Transwell at 37° C. After 48 hours from the initiation of culture, the amount of MBD-3 in the supernatant of the culture fluid was measured by ELISA. The experiment was carried out in the same manner as in Example 5, except that glycyrrhizin was not allowed to be co-present, and the amount of MBD-3 in the supernatant of the culture fluid was measured. The experiment was carried out in the same manner as in Example 5, except that only LPS-treated epidermal keratinocytes (2×10^6 cells/ml) were cultured without allowing glycyrrhizin to be co-present, and the amount of MBD-3 in the supernatant of the culture fluid was measured. The experiment was carried out in the same manner as in Example 5, except that only LPS-treated epidermal keratinocytes (2×10^6 cells/ml) were cultured in the co-presence of glycyrrhizin in an amount of 10 μg/ml, and the amount of MBD-3 in the supernatant of the culture fluid was measured. The experiment was carried out in the same manner as in Example 5, except that only Gr-1^+CD11b^+ cells (5×10^5 cells/ml) were cultured without allowing glycyrrhizin to be co-present, and the amount of MBD-3 in the supernatant of the culture fluid was measured.

MBD-1 [5] = assay: Quantity-dependency of glycyrrhizin on MBD-1 production ability restoration (Transwell co-culture, ELISA); assay type: cell-based, mouse; details: 48 hours
Procedure: Epidermal keratinocytes (2×10^6 cells/ml) were collected from the skin of a normal mouse. Furthermore, a normal mouse was given a burn injury on its dorsal side, and after 12 hours, Gr-1^+CD11b^+ cells (5×10^5 cells/ml) were collected from the skin tissues around the burn site. Using the medium for keratinocyte culture as a medium, and making glycyrrhizin to be co-present in an amount of 1 μg/ml (Example 6), 10 μg/ml (Example 7), 100 μg/ml (Example 8) or 300 μg/ml (Example 9), the epidermal keratinocytes and the Gr-1^+CD11b^+ cells were cultured in a same Transwell at 37° C. The amount of MBD-1 in the supernatant of the culture fluid after 48 hours from the initiation of culture was measured by ELISA. The results are shown in the semilogarithmic graph of FIG. 8. The experiment was carried out in the same manner as in Examples 6 to 9, except that glycyrrhizin was not made to be co-present, and the amount of MBD-1 in the supernatant of the culture fluid was measured. The results are shown in the bar graph of FIG. 8. […] Furthermore, the two graphs share the vertical axis (the amount of MBD-1).

CCL2 = CCL2 production by Gr-1+CD11b+ cells (ELISA); assay type: cell-based, mouse; details: 10 μg/ml; 48 hours; vs no glycyrrhizin
Procedure: (§1) A normal mouse was given a burn injury on its dorsal side, and after 12 hours, Gr-1^+CD11b^+ cells (2×10^6 cells/ml) were collected from the skin tissue around the burn site. Using the keratinocyte culture medium as a medium, the Gr-1^+CD11b^+ cells were cultured in a 96-well plate at 37° C. in the co-present of glycyrrhizin in an amount of 10 μg/ml. After 48 hours from the initiation of culture, the amounts of CCL2 and IL-10 in the supernatant of the culture fluid were measured by ELISA. […] The experiment was carried out in the same manner as in Example 10, except that glycyrrhizin was not made to be co-present, and the amounts of CCL2 and IL-10 in the supernatant of the culture fluid were measured.

IL-10 = IL-10 production by Gr-1+CD11b+ cells (ELISA); assay type: cell-based, mouse; details: 10 μg/ml; 48 hours; vs no glycyrrhizin
Procedure: as §1

MBD-1 [6] = assay: MBD-1 production of epidermal keratinocytes cultured with recombinant CCL2 and/or IL-10; assay type: cell-based, mouse; details: recombinant CCL2 5 ng/ml and/or IL-10 1 ng/ml; 48 hours
Procedure: Epidermal keratinocytes (2×10^6 cells/ml) collected from the skin of a normal mouse were cultured at 37° C. in the co-presence of CCL2 (5 ng/ml) (Reference Example 18), IL-10 (1 ng/ml) (Reference Example 19), or CCL2 (5 ng/ml) and IL-10 (1 ng/ml) (Reference Example 20), which had been produced by a known recombinant DNA technology using a recombinant. The amount of MBD-1 in the supernatant of the culture fluid after 48 hours from the initiation of culture was measured by ELISA.

Molecule | deaths among the mice (survival) (Pseudomonas aeruginosa [1]; 100 CFU P. aeruginosa at burn site, 10 mg/kg i.p. at 2, 24 and 72 hours after burn, up to the 7th day, 10 mice) | survival rate compared with mice not administered with glycyrrhizin (physiological saline) (Pseudomonas aeruginosa [1]; 100 CFU P. aeruginosa, 10 mg/kg i.p. at 2, 24 and 72 hours, after 2 days and on) | amount of Pseudomonas aeruginosa in the blood specimen vs saline mouse (Pseudomonas aeruginosa [2]) | amount of Pseudomonas aeruginosa in the spleen homogenate specimen vs saline mouse (Pseudomonas aeruginosa [2]) | amount of MBD-1 in skin tissue homogenate vs saline mouse (MBD-1 [3]) | amount of MBD-1 in culture supernatant vs no glycyrrhizin (MBD-1 [4]; co-culture of epidermal keratinocytes and Gr-1+CD11b+ cells) | MBD-1 production ability inhibiting effect of Gr-1+CD11b+ cells against epidermal keratinocytes (MBD-1 [4]; co-culture) | MBD-1 production ability promoting effect against epidermal keratinocytes (MBD-1 [4]; epidermal keratinocytes alone) | MBD-3 production ability promoting effect against LPS-treated epidermal keratinocytes (MBD-3; LPS-treated epidermal keratinocytes alone) | amount of MBD-3 in culture supernatant vs no glycyrrhizin (MBD-3; co-culture of LPS-treated epidermal keratinocytes and Gr-1+CD11b+ cells) | MBD-3 production ability inhibiting effect of Gr-1+CD11b+ cells against LPS-treated epidermal keratinocytes (MBD-3; co-culture) | MBD-1 production ability restoring effect (MBD-1 [5]; glycyrrhizin 10 μg/ml (Example 7)) | MBD-1 production ability restoring effect (MBD-1 [5]; glycyrrhizin 100 μg/ml (Example 8)) | MBD-1 production ability restoring effect (MBD-1 [5]; glycyrrhizin 300 μg/ml (Example 9)) | CCL2 production ability of Gr-1+CD11b+ cells (CCL2) | IL-10 production ability of Gr-1+CD11b+ cells (IL-10) | MBD-1 production ability of the epidermal keratinocytes (MBD-1 [6])
CC1(C)[C@@H](O[C@H]2O[C@H](C(=O)O)[C@@H](O)[C@H](O)[C@H]2O[C@@H]2O[C@H](C(=O)O)[C@@H](O)[C@H](O)[C@H]2O)CC[C@]2(C)[C@H]3C(=O)C=C4[C@@H]5C[C@@](C)(C(=O)O)CC[C@]5(C)CC[C@@]4(C)[C@]3(C)CC[C@@H]12 [glycyrrhizin] | none of the individuals died | markedly high | markedly reduced | markedly reduced | larger | larger | reduced this inhibiting effect | did not have an MBD-1 production ability promoting effect | did not have an MBD-3 production ability promoting effect | larger | reduced this inhibiting effect | particularly excellent | particularly excellent | particularly excellent | inhibited | inhibited | 
CCL2: chemokine CCL2 produced by known recombinant DNA technology, 5 ng/ml (Reference Example 18) |  |  |  |  |  |  |  |  |  |  |  |  |  |  |  |  | inhibited
B1 |  |  |  |  |  |  |  |  |  |  |  |  |  |  |  |  | inhibited
